Experimental data: ChEMBL document CHEMBL1201862, “PubChem BioAssay data set” (2004)
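Five concentrations, 48 hours, 96-well plates. Abbreviation: GI50, concentration required for 50% inhibition of growth.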 The source made the active and inactive calls. Cut-off read from the data, not from the text of the source: active = GI50 up to about 1.1 µM and inactive = higher.

Tests used:
Assay in all cases: NCI tumour cell line growth inhibition, 48 h
LOX IMVI = test system: LOX IMVI
SF-295 = test system: SF-295
NCI-H23 = test system: NCI-H23
UACC-257 = test system: UACC-257
BT-549 = test system: BT-549
SK-OV-3 = test system: SK-OV-3
SNB-19 = test system: SNB-19
SW-620 = test system: SW-620
SNB-75 = test system: SNB-75
A498 = test system: A498
NCI-H522 = test system: NCI-H522
MDA-MB-231 = test system: MDA-MB-231
TK-10 = test system: TK-10
786-0 = test system: 786-0
HCT-15 = test system: HCT-15
A549 = test system: A549
HCT-116 = test system: HCT-116
UO-31 = test system: UO-31
T47D = test system: T47D
CAKI-1 = test system: CAKI-1

| Compound | GI50 (LOX IMVI) | GI50 (SF-295) | GI50 (NCI-H23) | GI50 (UACC-257) | GI50 (BT-549) | GI50 (SK-OV-3) | GI50 (SNB-19) | GI50 (SW-620) | GI50 (SNB-75) | GI50 (A498) | GI50 (NCI-H522) | GI50 (MDA-MB-231) | GI50 (TK-10) | GI50 (786-0) | GI50 (HCT-15) [µM] | GI50 (A549) | GI50 (HCT-116) | GI50 (UO-31) | GI50 (T47D) | GI50 (CAKI-1) |
| --- | --- | --- | --- | --- | --- | --- | --- | --- | --- | --- | --- | --- | --- | --- | --- | --- | --- | --- | --- | --- |
| COc1ccc(/C=C/C(=N/NC(=O)N/N=C(/C=C/c2ccc(OC)cc2)C(C)C)C(C)C)cc1 | > 100 µM (inactive) | 99.1 µM (inactive) | > 100 µM (inactive) | > 100 µM (inactive) | > 100 µM (inactive) | > 100 µM (inactive) | > 100 µM (inactive) | > 100 µM (inactive) | > 100 µM (inactive) | > 100 µM (inactive) | 63.1 µM (inactive) | > 100 µM (inactive) | 50 µM (inactive) | > 100 µM (inactive) | 49.5 | 45.3 µM (inactive) | 66.1 µM (inactive) | 76.2 µM (inactive) | 25.9 µM (inactive) | > 100 µM (inactive) |
| CC(=O)NC1C(OCc2ccccc2)OC(CO)C(O)C1OCC(=O)N[C@@H](C)C(=O)N[C@H](CCC(=O)NCCNCCNc1c2ccccc2nc2cccc([N+](=O)[O-])c12)C(N)=O (stereo not given in full) | 23.5 µM (inactive) | 57.4 µM (inactive) | 16.4 µM (inactive) | 21.2 µM (inactive) | > 10 µM (inactive) | 78.5 µM (inactive) | 38.9 µM (inactive) | 39.1 µM (inactive) | 33.2 µM (inactive) | 19.8 µM (inactive) | 4.92 µM (inactive) | 34.8 µM (inactive) | 31.8 µM (inactive) | 25.4 µM (inactive) | 22.6 | 35.4 µM (inactive) | 19.5 µM (inactive) | 44.8 µM (inactive) | 27.5 µM (inactive) | 22.6 µM (inactive) |
| COc1cc2cc(C(=O)N3CC(COS(C)(=O)=O)c4ccc(NC(=O)OCc5ccccc5)cc43)[nH]c2c(OC)c1OC (stereo not given) | > 100 µM (inactive) | > 100 µM (inactive) | 17 µM (inactive) | > 100 µM (inactive) | > 100 µM (inactive) | > 100 µM (inactive) | > 100 µM (inactive) | > 100 µM (inactive) | 28.9 µM (inactive) | 43.3 µM (inactive) | 99.1 µM (inactive) | > 100 µM (inactive) | > 100 µM (inactive) | > 100 µM (inactive) | > 100 | > 100 µM (inactive) | > 100 µM (inactive) | > 100 µM (inactive) | > 100 µM (inactive) | > 100 µM (inactive) |
| COc1cc(CNC(=O)CCCCCCCCCCSC#N)ccc1O | 12 µM (inactive) | 19.1 µM (inactive) | 20.6 µM (inactive) | 21 µM (inactive) | 22.9 µM (inactive) | 10.6 µM (inactive) | 19.7 µM (inactive) | 16.2 µM (inactive) | 11 µM (inactive) | 15.1 µM (inactive) | 12.3 µM (inactive) | 25.7 µM (inactive) | 20.5 µM (inactive) | 17.8 µM (inactive) | 6.93 | 19.1 µM (inactive) | 14.9 µM (inactive) | 3.52 µM (inactive) | 8.26 µM (inactive) | 18.2 µM (inactive) |
| O=c1oc2ccccc2cc1-c1cn2ccccc2n1 | 12.6 µM (inactive) | 3.66 µM (inactive) | 12.1 µM (inactive) | 3.89 µM (inactive) | 11.9 µM (inactive) | 4.01 µM (inactive) | 3.32 µM (inactive) | 10.4 µM (inactive) | 2.47 µM (inactive) | 2.24 µM (inactive) | 3.31 µM (inactive) | 6.4 µM (inactive) | 8.02 µM (inactive) | 3.8 µM (inactive) | 16.7 | 5.48 µM (inactive) | 10.1 µM (inactive) | 2.36 µM (inactive) | 14.6 µM (inactive) | 5.75 µM (inactive) |
| Cc1cc2[nH]c(Cl)c(/C=C3\C(=O)Nc4ccccc43)c2cc1O | 3.16 µM (inactive) | 2.79 µM (inactive) | 2.32 µM (inactive) | 11.2 µM (inactive) | 6.53 µM (inactive) | 4.83 µM (inactive) | 3.27 µM (inactive) | 1.81 µM (inactive) | 3.45 µM (inactive) | 4.05 µM (inactive) | 1.5 µM (inactive) | 3.09 µM (inactive) | 9.71 µM (inactive) | 5.4 µM (inactive) | 1.66 | 5.08 µM (inactive) | 2.8 µM (inactive) | 4.45 µM (inactive) | 10.9 µM (inactive) | 5.25 µM (inactive) |
| CC1CCCCCC(=O)c2c(O)cc(O)cc2CC(=O)O1 (stereo not given) [CURVULARIN] | 43.9 µM (inactive) | 94.8 µM (inactive) | 48.9 µM (inactive) | 55.6 µM (inactive) | 54.1 µM (inactive) | > 100 µM (inactive) | > 100 µM (inactive) | > 100 µM (inactive) | 57.4 µM (inactive) | > 100 µM (inactive) | > 100 µM (inactive) | > 100 µM (inactive) | 90.2 µM (inactive) | > 100 µM (inactive) | > 100 | > 100 µM (inactive) | > 100 µM (inactive) | 45 µM (inactive) | 59.2 µM (inactive) | > 100 µM (inactive) |
| C[C@@H]1CCC2[C@@H](C)[C@H](O[C@H]3O[C@@H]4O[C@@]5(C)CCC6[C@H](C)CCC([C@H]3C)[C@]64OO5)O[C@@H]3O[C@@]4(C)CCC1[C@@]23OO4 (stereo not given in full) | 0.0258 µM (active) | 0.32 µM (active) | 0.0415 µM (active) | 0.0912 µM (active) | 0.0553 µM (active) | 0.452 µM (active) | 3.17 µM (inactive) | 0.0418 µM (active) | 0.188 µM (active) | 4.15 µM (inactive) | 0.0577 µM (active) | 0.385 µM (active) | 0.205 µM (active) | 0.361 µM (active) | 0.022 | 0.0914 µM (active) | 0.0177 µM (active) | 0.0559 µM (active) | 0.0293 µM (active) | 0.27 µM (active) |
| CC(=O)N1C(C(=O)NN2CCOCC2)CSC1c1ccccc1 (stereo not given) | > 100 µM (inactive) | > 100 µM (inactive) | > 100 µM (inactive) | > 100 µM (inactive) | > 100 µM (inactive) | > 100 µM (inactive) | > 100 µM (inactive) | > 100 µM (inactive) | > 100 µM (inactive) | > 100 µM (inactive) | > 100 µM (inactive) | > 100 µM (inactive) | > 100 µM (inactive) | > 100 µM (inactive) | > 100 | > 100 µM (inactive) | > 100 µM (inactive) | > 100 µM (inactive) | > 100 µM (inactive) | > 100 µM (inactive) |
| O=C(O)c1c2c(cc3c1CC(Cc1ccccc1)C3=O)CCC2 (stereo not given) | 26 µM (inactive) | > 100 µM (inactive) | > 100 µM (inactive) | > 100 µM (inactive) | > 100 µM (inactive) | > 100 µM (inactive) | > 100 µM (inactive) | > 100 µM (inactive) | > 100 µM (inactive) | > 100 µM (inactive) | 74.6 µM (inactive) | 30.5 µM (inactive) | > 100 µM (inactive) | > 100 µM (inactive) | 41.7 | 19.5 µM (inactive) | 89.9 µM (inactive) | 16.6 µM (inactive) | > 100 µM (inactive) | > 100 µM (inactive) |
